{"source": "patent US12486218B2", "about": "“Compounds advantageous in the treatment of central nervous system diseases and disorders” (AurimMed Pharma, Inc., priority 2008, dated 2025)", "key": {"mice [1]": {"system": "mice", "assay": "Corneal kindled mouse model", "type": "in vivo", "conditions": "mice i.p.; 50 mg/kg @ 1.0 hr"}, "NMDA receptors": {"system": "NMDA receptors", "assay": "Electrophysiology, NMDA current", "type": "cell-based", "conditions": "at 100 μM [+glycine (1 μM)], holding potential −70 mV", "excerpt": "(§1) The mechanisms of action of many currently marketed anticonvulsant drugs are not fully understood. Although numerous molecular targets exist wherein anticonvulsants may exert an effect, the final common pathway appears to be through modulation of voltage-gated and/or neurotransmitter-gated ion channels. Thus, the common link among the various proposed mechanisms involves the ability of an anticonvulsant to modulate ion channel function. Presently, a number of prototype anticonvulsants are thought to exert their action (at least in part) by reducing sustained, high-frequency repetitive firing of action potentials by modulating voltage-dependent sodium (Na+) channels. The effect of promising candidate substances on voltage-gated Na+ channels can be assessed using state-of-the-art electrophysiological techniques."}, "mice [2]": {"system": "mice", "assay": "Minimal motor impairment (MID50), mice i.p.", "conditions": "mice, i.p."}, "CYP-450 3A4": {"molecular_target": "CYP-450 3A4 (Homo sapiens, UniProt P08684)", "sequence (P08684 whole entry)": "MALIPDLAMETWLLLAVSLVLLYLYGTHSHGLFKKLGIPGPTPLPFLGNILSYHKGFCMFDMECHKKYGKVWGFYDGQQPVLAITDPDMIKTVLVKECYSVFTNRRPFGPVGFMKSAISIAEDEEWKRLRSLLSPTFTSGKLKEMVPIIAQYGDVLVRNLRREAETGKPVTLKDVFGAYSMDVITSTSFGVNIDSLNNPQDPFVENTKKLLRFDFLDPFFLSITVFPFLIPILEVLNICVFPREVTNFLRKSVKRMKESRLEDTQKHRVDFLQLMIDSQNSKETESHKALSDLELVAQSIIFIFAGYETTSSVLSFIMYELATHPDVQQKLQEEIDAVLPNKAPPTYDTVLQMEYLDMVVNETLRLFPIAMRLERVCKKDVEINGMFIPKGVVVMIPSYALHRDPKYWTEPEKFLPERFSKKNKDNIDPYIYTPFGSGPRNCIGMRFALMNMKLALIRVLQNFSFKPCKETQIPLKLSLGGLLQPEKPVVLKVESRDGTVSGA", "assay": "In vitro human CYP-450 study, 3A4", "type": "in vitro ADME", "conditions": "human enzyme", "excerpt": "(§2) On the other hand, it is an inhibitor for 2C19, 2D6, 2A6 and 2C9."}, "rats [3]": {"system": "rats", "assay": "Minimal motor impairment (MID50), rats p.o.", "type": "in vivo"}, "CYP-450 2E1": {"molecular_target": "CYP-450 2E1 (Homo sapiens, UniProt P05181)", "sequence (P05181 whole entry)": "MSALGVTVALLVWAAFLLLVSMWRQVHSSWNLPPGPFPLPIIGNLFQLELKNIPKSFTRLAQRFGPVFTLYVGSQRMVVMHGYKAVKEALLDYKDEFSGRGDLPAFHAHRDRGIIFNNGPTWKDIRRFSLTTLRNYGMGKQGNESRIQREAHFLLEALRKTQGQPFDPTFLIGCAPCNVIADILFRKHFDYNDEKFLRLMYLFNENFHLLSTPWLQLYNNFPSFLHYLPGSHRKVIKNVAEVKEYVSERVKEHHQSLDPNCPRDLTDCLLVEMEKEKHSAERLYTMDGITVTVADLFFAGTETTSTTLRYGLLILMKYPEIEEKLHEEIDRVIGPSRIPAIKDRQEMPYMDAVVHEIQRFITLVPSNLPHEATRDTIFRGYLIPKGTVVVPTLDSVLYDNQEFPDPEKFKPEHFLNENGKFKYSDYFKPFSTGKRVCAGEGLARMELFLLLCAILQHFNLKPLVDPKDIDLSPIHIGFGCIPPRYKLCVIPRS", "assay": "In vitro human CYP-450 study, 2E1", "type": "in vitro ADME", "conditions": "human enzyme", "excerpt": "as §2"}, "GABA receptors": {"system": "GABA receptors", "assay": "Electrophysiology, GABA receptor currents", "type": "cell-based", "conditions": "at 100 μM, holding potential −70 mV", "excerpt": "as §1"}, "[4]": {"system": "rat dopaminergic N27 cells", "assay": "N27 protection assay against oxidative stress (H2O2 or MPP+; MTT and LDH)", "type": "cell-based", "conditions": "drug 24 hours before 200 μM H2O2 or 640 μM MPP+", "in_short": "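Protection mode: N27 cells pretreated with drug at various concentrations for 24 hours, then exposed to 200 μM H2O2 or 640 μM MPP+. Recovery mode: cells damaged by H2O2 first, drug applied afterwards. Viability measured by MTT reduction and cytotoxicity by released LDH.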"}, "rats [5]": {"system": "rats", "assay": "Water maze, spatial memory and learning in lithium-pilocarpine treated rats", "type": "in vivo", "conditions": "pilocarpine-induced SE rats", "procedure": "To assess spatial memory and learning in lithium-pilocarpine treated animals and to identify novel compounds that might ameliorate cognitive deficits and neuronal loss, rats were tested for their ability to navigate a water maze and find a submerged escape platform based only on their ability to remember and assess only extra maze visual cues. Learning can be assessed by quantifying the time that an animal takes to find the platform (latency) over a number of independent trials. Further, this model is sensitive to the hippocampal damage associated with pilocarpine-induced status epilepticus (SE)."}, "[6]": {"system": "identified target proteins", "assay": "Protein profiling using Mass spectrometry after compound BX treatment", "conditions": "protein amount, preliminary", "excerpt": "The data presented below in Tables 10-12 illustrate various studies aimed at identifying the targets that compound BX acts upon. Table 10 illustrates preliminary protein profiling data using Mass spectrometry to identify up/down-regulation by compound BX treatment among numerous identified target proteins. In the results shown in Table 10, superoxide dismutase (SOD) protein amount is increased almost two-fold. This is a significant increase in SOD. SOD protein, which is an enzyme that alternately catalyzes the dismutation (or partitioning) of the superoxide (O2^−) radical into either ordinary molecular oxygen (O2) or hydrogen peroxide (H2O2), is strongly associated with amyotrophic lateral sclerosis (ALS). Mutations in the first SOD enzyme (SOD1) can cause familial ALS. Onset of ALS is strongly associated with oxidative stress in the neural tissue of affected individuals."}, "[7]": {"system": "mRNA levels of potential targets", "assay": "PCR array using real-time PCR (mRNA levels)", "conditions": "mRNA level", "excerpt": "Tables 11 and 12 illustrate PCR array data using real-time PCR to track mRNA levels for various potential targets of compound BX."}}}
{"smiles": "CC(CC(N)=O)c1ccc(OC(F)(F)F)cc1", "note": "(racemic) [Compound H, 3-[4-(trifluoromethoxy)-phenyl]butyramide]", "values": [{"measurement": "Corneal Kindled, Average seizure score", "setting": "mice [1]", "result": "2: (0, 4,"}, {"measurement": "Corneal Kindled, fraction of animals", "setting": "mice [1]", "result": "2/4 @"}, {"measurement": "NMDA current (enhancement)", "setting": "NMDA receptors", "result": "119±7 % of control"}, {"measurement": "MID50 (median minimal motor impairment dose)", "setting": "mice [2]", "result": 158.98, "unit": "mg/kg"}, {"measurement": "inhibition of CYP-450 3A4", "setting": "CYP-450 3A4", "result": "either no or only a remote possibility of inhibiting"}, {"measurement": "MID50", "setting": "rats [3]", "result": ">500", "unit": "mg/kg"}, {"measurement": "inhibition of CYP-450 2E1", "setting": "CYP-450 2E1", "result": "either no or only a remote possibility of inhibiting"}, {"measurement": "GABA receptor response", "setting": "GABA receptors", "result": "108±3 % of control"}]}
{"smiles": "C[C@H](CC(N)=O)c1ccc(OC(F)(F)F)cc1", "note": "(single isomer, unassigned) [Compound BX, R-(−)-3-(4-Trifluoromethoxy-phenyl)butyramide]", "values": [{"measurement": "neuroprotective effect against H2O2 and MPP+ oxidative stresses (MTT and LDH assays)", "setting": "[4]", "result": "potent dose-dependent neuroprotective effects"}, {"measurement": "spatial learning and memory in the water maze task", "setting": "rats [5]", "result": "preserved spatial learning and memory"}, {"measurement": "water maze learning curve in terms of latency", "setting": "rats [5]", "result": "much faster learning curve"}, {"measurement": "Compound Ratio, 14-3-3 Protein Gamma (P61983)", "setting": "[6]", "result": 1.15}, {"measurement": "Compound Ratio, Elongation factor 1-alpha 1 (P62630)", "setting": "[6]", "result": 0.59}, {"measurement": "Compound Ratio, Eukaryotic translation initiation factor 5A-1 (Q3T1J1)", "setting": "[6]", "result": 1.64}, {"measurement": "Compound Ratio, Glycine tRNA ligase (G3V7G8)", "setting": "[6]", "result": 0.67}, {"measurement": "Compound Ratio, Heat Shock Protein HSP 90-alpha (P82995)", "setting": "[6]", "result": 0.77}, {"measurement": "Compound Ratio, Heat shock 70 kDA protein (F1LRV4)", "setting": "[6]", "result": 0.73}, {"measurement": "Compound Ratio, Hypoxia up-regulated protein (Q63617)", "setting": "[6]", "result": 0.58}, {"measurement": "Compound Ratio, Malate Dehydrogenase (P04636)", "setting": "[6]", "result": 0.68}, {"measurement": "Compound Ratio, Proteasome subunit alpha type-2 (P17220)", "setting": "[6]", "result": 0.35}, {"measurement": "Compound Ratio, Superoxide dismutase [CU—Zn] (P07632)", "setting": "[6]", "result": 1.72}, {"measurement": "Fold increase, Als2 (Amyotrophic lateral sclerosis 2 homolog)", "setting": "[7]", "result": 109.36}, {"measurement": "Fold increase, Atp2b2 (ATPase, Ca++ transporting, plasma membrane 2)", "setting": "[7]", "result": "−5.85"}, {"measurement": "Fold increase, Bdnf (Brain-derived neurotrophic factor)", "setting": "[7]", "result": 2.58}, {"measurement": "Fold increase, Cat (Catalase)", "setting": "[7]", "result": 82.03}, {"measurement": "Fold increase, Gclc (Glutamate-cysteine ligase, catalytic subunit)", "setting": "[7]", "result": 5.79}, {"measurement": "Fold increase, Htr2a (5-HT (serotonin) receptor 2A)", "setting": "[7]", "result": "−3.11"}, {"measurement": "Fold increase, Ldha (Lactate dehydrogenase A)", "setting": "[7]", "result": "−9.66"}, {"measurement": "Fold increase, Ntrk2 (Neurotrophic tyrosine kinase, receptor, type 2)", "setting": "[7]", "result": "−2.07"}, {"measurement": "Fold increase, P62630 (Aldehyde oxidase 1)", "setting": "[7]", "result": 2.1}, {"measurement": "Fold increase, Prdx2 (Peroxiredoxin 2)", "setting": "[7]", "result": 9.66}, {"measurement": "Fold increase, Psmb5 (Proteasome subunit, beta type 5)", "setting": "[7]", "result": 3.02}, {"measurement": "Fold increase, Slc6a3 (Solute carrier family 6 (DAT), member 3)", "setting": "[7]", "result": "−5.59"}, {"measurement": "Fold increase, Snca (Alpha-Synuclein)", "setting": "[7]", "result": "−2.14"}, {"measurement": "Fold increase, Syngr3 (Synaptogyrin 3)", "setting": "[7]", "result": 2.25}, {"measurement": "Fold increase, Syt1 (Synaptotagmin I)", "setting": "[7]", "result": 2.19}, {"measurement": "Fold increase, Ubb (Ubiquitin B)", "setting": "[7]", "result": 3.23}, {"measurement": "Fold increase, Ube2k (Ubiquitin-conjugating enzyme E2K)", "setting": "[7]", "result": 2.98}]}
